Laboratory results taken from patent US20090227489A1, “STAT3 Agonists and Antagonists and Therapeutic Uses Thereof” (Johns Hopkins University, priority 2000, published 2009).

Test system: B16 cells
Assay: Macrophage-mediated antitumor cytotoxicity (3H-TdR incorporation)
Assay type: cell-based, murine
Settings: added to macrophages before supernatant; NMA 0.5 mM, catalase 500 U/ml
Experimental: Macrophages (˜1×10^5) were incubated in 50% supernatants from Stat3β-transfected (S-Stat3β) or GFP-vector transfected (S-GFP) B16 cells for 6 h. The supernatants were replaced by normal complete medium and wild-type B16 cells (1×10^4) were added.
Macrophage-mediated antitumor cytotoxicity. Antitumor cytotoxic activity of macrophages against B16 cells was determined by inhibition of DNA synthesis. Briefly, peritoneal macrophages (1×10^5) were incubated in 50% supernatants derived from either wild type, pIRES-Stat3β or pIRES-GFP transfected, or UV-irradiated B16 cells for 6 h. After replacing the supernatants with normal complete medium, B16 cells (1.0×10^4/well) were added and co-cultured for 48 h with and without peritoneal macrophages. For some experiments, NOS inhibitor, N-monomethyl-L-arginine (NMA) (0.5 mM, Sigma) or H202 quencher, catalase (500 U/ml, Boehringer Mannheim, Indianapolis, Ind.) were added to macrophages before adding supernatant from Stat3β-transfected B16 cells. The co-cultured cells were pulsed with 3H-thymidine (3H-TdR) (0.25 μCi/well) during the last 6 h of incubation to estimate DNA synthesis. 3H-TdR incorporation was determined using a liquid scintillation β-counter (Pharmacia Wallac, Finland).
3H-thymidine incorporation to estimate DNA synthesis and cell proliferation was performed.

## catalase
  effect on macrophage-mediated cytostasis induced by Stat3β supernatant: does not influence macrophage cytotoxic effects against B16 cells
